{"source": "patent US8962688B2", "about": "“Method for the treatment of gastrointestinal disorders” (Sucampo AG, priority 2005, dated 2015)", "key": {"[1]": {"test_system": "rabbit platelet aggregation induced with ADP", "experiment": "Rabbit platelet aggregation induced with ADP", "format": "cell-based", "details": "for % Inhibition / Maximum aggregation: 10^−7 g/mL, platelet-rich plasma; for Maximum aggregation: mean ± SE, n=3; for Effect on the platelet aggregation: result in words, summary of Table 3", "method": "Blood was collected from rabbits of the JW/CSK strain and citrated by mixing with sodium citrate in a ratio of 9 volumes of blood to 1 volume of 3.8% sodium citrate solution. Platelet-rich plasma (PRP) was obtained by centrifugation of the citrated blood at 1000 rpm (168×g) for 10 minutes. After collection of PRP, residual blood was further centrifuged at 3000 rpm (1670×g) for 15 minutes, and the supernatant was used as platelet-poor plasma (PPP). After pre-incubation of PRP (200 μL) with each test solution (25 μL) for 1 minutes at 37° C., 25 μL of platelet aggregation agent (ADP […]) was added. Platelet aggregation was measured with a platelet aggregation meter (HEMATRACER PAT-4A, Niko Bioscience, Inc.). Each test solution was examined with 3 different animal source platelets in duplicate fashion. Inhibition percent was calculated by comparing with the maximal aggregation with the saline-treatment group."}, "[2]": {"test_system": "stress-induced stomach ulcers", "experiment": "Stress-induced (water immersion, 6 hours) stomach ulcers in rats", "format": "in vivo, rat", "details": "for Ulcer index (sum of lengths of each individual ulcer): mean ± SE", "method": "Each group of test animals used consisted of 9 or 10 male rats of the Crj: Wistar strain. The animals were fasted for 24 hours before the oral administration of the test sample. Ten minutes after the oral administration of various doses of the Compound 1 (13,14-dihydro-15-keto-16,16-difluoro-PGE1) or the vehicle, each animal was put in a narrow cage, and was immersed in water (23° C.) up to the height of the xipoid process for 6 hours. The animals were then euthanized. The stomach was removed and the maximum length of the longest axis of each stomach ulcer was measured. The ulcer index was calculated as the sum of lengths of each individual ulcer."}, "[3]": {"test_system": "gastric ulcer induced by water-immersion stress", "experiment": "Gastric ulcer induced by water-immersion stress (5 hours) in rats, single and combined treatment", "format": "in vivo, rat", "details": "for Inhibition of the gastric ulcer: result in words, summary of Table 4", "method": "Wistar rats were used after an overnight fast with free access to water. Compound 1 (13,14-dihydro-15-keto-16,16-difluoro-PGE1) or Compound 2(13,14-dihydro-15-keto-16,16-difluoro-18(s) methyl-PGE1) was orally administered to the animals. When the effect of combined treatment with Compound 1 and proton pump inhibitor (lansoprazole or omeprazole) was evaluated, Compound 1 and proton pump inhibitor were orally administered simultaneously. Control group received the same volume of the vehicle. Ten minutes after the administration, the animals were placed in stress cages and were vertically immersed to the xiphoid process in a water bath maintained at 23° C. Five hours later, each animal was taken out from the cage and sacrificed by CO2 asphyxiation. The stomach was removed after ligating the cardiac region of stomach and the upper part of duodenum. The stomach was filled with 4 mL of physiological saline solution, and fixed in 1% formalin solution for 30 minutes. The stomach was opened along the greater curvature. The length (mm) of the individual ulcer was measured and the ulcer index was expressed as the sum of the lengths of all ulcers per stomach."}, "total acid output": {"test_system": "total acid output", "experiment": "Total gastric acid output in pylorus-ligated rats", "format": "in vivo, rat", "details": "oral, 30 min before pyloric ligation; 4 hours output; compared to vehicle-treated control (FIG. 1)", "method": "The study was conducted according to the method described by Wong et al (Pharmacol. Soc. 32:49-56, 1989). Each group of test animals used consisted of 6 male rats of the Crj: Wistar strain. The animals were fasted for 24 hours with free access to water. Each dose formulation of Compound 1 (13,14-dihydro-15-keto-16,16-difluoro-PGE1), saline and medium chain fatty acid triglyceride (MCT) was orally administered 30 minutes before pyloric ligation. For positive control, the animals were received pentagastrin, a known gastric acid stimulator, subcutaneously at 2000 μg/kg. Under ether anesthesia, the abdomen was opened through a midline incision, the pylorus ligated with 3-0 silk suture, and the abdomen closed. The animals were kept without diet and water thereafter. Four hours after pyloric ligation, the animals were euthanized by cervical dislocation and the abdomen opened. The gastric contents were collected into sterile centrifuge tubes, and centrifuged at 3000 rpm for 10 minutes to remove solid materials. The supernatant was collected and the volume measured. A 1 mL aliquot of each gastric fluid sample was titrated to pH 7.0 with 0.01 N sodium hydroxide using an automatic […], Co., Ltd., Japan) to determine the acidity (mEq H^+/mL) Total output of gastric acid for 4 hours was calculated"}, "[4]": {"test_system": "indomethacin-induced stomach ulcers", "experiment": "Indomethacin-induced stomach ulcers in rats", "format": "in vivo, rat", "method": "Each group of test animals used consisted of 10 male rats of the Crj: Wistar strain. The animals were fasted for 24 hours before the oral administration of the Compound 1 (13,14-dihydro-15-keto-16,16-difluoro-PGE1) or the vehicle. Ten minutes after the oral administration of the test sample or the vehicle, all rats received a 20 mg/kg oral dose of indomethacin. The animals were euthanized 6 hours later. The stomach was removed and the length of the longest axis of each stomach ulcer was measured. The ulcer index was calculated as the sum of the lengths of each individual ulcer."}}}
{"smiles": "CCCCC(F)(F)C(=O)CCC1C(O)CC(=O)C1CCCCCCC(=O)O", "note": "(stereo not shown) [Compound 1, 13,14-dihydro-15-keto-16,16-difluoro-PGE1]", "values": [{"measurement": "% Inhibition", "setting": "[1]", "value": 0, "unit": "%"}, {"measurement": "Maximum aggregation", "setting": "[1]", "value": "49.5 ± 2.5", "unit": "%"}, {"measurement": "Effect on the platelet aggregation", "setting": "[1]", "value": "no effect"}, {"measurement": "% Inhibition", "setting": "[2]; 3 μg/kg po", "value": 9.2, "unit": "%"}, {"measurement": "Ulcer index (sum of lengths of each individual ulcer)", "setting": "[2]; 3 μg/kg po", "value": "26.6 ± 3.7"}, {"measurement": "% Inhibition", "setting": "[2]; 10 μg/kg po", "value": 20.1, "unit": "%"}, {"measurement": "Ulcer index (sum of lengths of each individual ulcer)", "setting": "[2]; 10 μg/kg po", "value": "23.4 ± 4.7"}, {"measurement": "% Inhibition", "setting": "[2]; 30 μg/kg po", "value": 54.3, "unit": "%"}, {"measurement": "Ulcer index (sum of lengths of each individual ulcer)", "setting": "[2]; 30 μg/kg po", "value": "13.4 ± 2.0"}, {"measurement": "% Inhibition", "setting": "[2]; 100 μg/kg po", "value": 85.3, "unit": "%"}, {"measurement": "Ulcer index (sum of lengths of each individual ulcer)", "setting": "[2]; 100 μg/kg po", "value": "4.3 ± 1.9"}, {"measurement": "Protection against stress-induced ulcer formation", "setting": "[2]; result in words, summary of Table 2", "value": "protection significantly"}, {"measurement": "Inhibition", "setting": "[3]; 10 μg/kg p.o.", "value": 23, "unit": "%"}, {"measurement": "Ulcer Index Mean ± S.E.", "setting": "[3]; 10 μg/kg p.o.", "value": "12.2 ± 1.9", "unit": "mm"}, {"measurement": "Inhibition", "setting": "[3]; 30 μg/kg p.o.", "value": 36, "unit": "%"}, {"measurement": "Ulcer Index Mean ± S.E.", "setting": "[3]; 30 μg/kg p.o.", "value": "10.1 ± 1.6", "unit": "mm"}, {"measurement": "Inhibition", "setting": "[3]; 100 μg/kg p.o.", "value": 91, "unit": "%"}, {"measurement": "Ulcer Index Mean ± S.E.", "setting": "[3]; 100 μg/kg p.o.", "value": "1.4 ± 0.6", "unit": "mm"}, {"measurement": "Inhibition of the gastric ulcer", "setting": "[3]", "value": "dose-dependent manner"}, {"measurement": "Effect on total acid output", "setting": "total acid output", "value": "did not affect"}, {"measurement": "Ulcer index (sum of lengths of each individual ulcer)", "setting": "[4]; 2 μg/kg po, 10 min before indomethacin 20 mg/kg po, mean ± SE", "value": "27.9 ± 5.1"}, {"measurement": "% Inhibition", "setting": "[4]; 2 μg/kg po, versus vehicle control", "value": 44, "unit": "%"}, {"measurement": "Protection against indomethacin-induced ulcer formation", "setting": "[4]; result in words, summary of Table 1", "value": "significant protection"}]}
{"smiles": "CC[C@H](C)CC(F)(F)C(=O)CC[C@H]1[C@H](O)CC(=O)[C@@H]1CCCCCCC(=O)O", "note": "[Compound 2, 13,14-dihydro-15-keto-16,16-difluoro-18(s) methyl-PGE1]", "values": [{"measurement": "Inhibition", "setting": "[3]; 10 μg/kg p.o.", "value": 21, "unit": "%"}, {"measurement": "Ulcer Index Mean ± S.E.", "setting": "[3]; 10 μg/kg p.o.", "value": "12.6 ± 2.2", "unit": "mm"}, {"measurement": "Inhibition", "setting": "[3]; 30 μg/kg p.o.", "value": 36, "unit": "%"}, {"measurement": "Ulcer Index Mean ± S.E.", "setting": "[3]; 30 μg/kg p.o.", "value": "10.2 ± 2.0", "unit": "mm"}, {"measurement": "Inhibition", "setting": "[3]; 100 μg/kg p.o.", "value": 85, "unit": "%"}, {"measurement": "Ulcer Index Mean ± S.E.", "setting": "[3]; 100 μg/kg p.o.", "value": "2.4 ± 0.9", "unit": "mm"}, {"measurement": "Inhibition of the gastric ulcer", "setting": "[3]", "value": "dose-dependent manner"}]}
{"smiles": "Cc1c(OCC(F)(F)F)ccnc1C[S+]([O-])c1nc2ccccc2[nH]1", "note": "(stereo not shown) [Lansoprazole, lansoprazole, reference compound]", "values": [{"measurement": "Ulcer Index Mean ± S.E.", "setting": "[3]; Lansoprazole 1000 μg/kg p.o. alone", "value": "4.6 ± 1.2", "unit": "mm"}, {"measurement": "inhibition at 1 mg/kg", "setting": "[3]; Rattus norvegicus, po, Lansoprazole 1000 μg/kg p.o. alone", "value": 46, "unit": "%"}]}
{"smiles": "COc1ccc2[nH]c([S+]([O-])Cc3ncc(C)c(OC)c3C)nc2c1", "note": "(stereo not shown) [Omeprazole, omeprazole, reference compound]", "values": [{"measurement": "Ulcer Index Mean ± S.E.", "setting": "[3]; Omeprazole 3000 μg/kg p.o. alone", "value": "5.9 ± 0.9", "unit": "mm"}, {"measurement": "inhibition at 3 mg/kg", "setting": "[3]; Rattus norvegicus, po, Omeprazole 3000 μg/kg p.o. alone", "value": 31, "unit": "%"}]}
{"smiles": "CCCCC[C@H](O)/C=C/[C@H]1[C@H](O)CC(=O)[C@@H]1CCCCCCC(=O)O", "note": "[PGE1, prostaglandin E1, reference compound]", "values": [{"measurement": "% Inhibition", "setting": "[1]", "value": 73, "unit": "%"}, {"measurement": "Maximum aggregation", "setting": "[1]", "value": "23.3 ± 1.9", "unit": "%"}, {"measurement": "Effect on the platelet aggregation", "setting": "[1]", "value": "significantly inhibited"}]}
